Measured values published in paper PMC11083148, “Structure–Activity Relationship Studies on Highly Functionalized Pyrazole Hydrazones and Amides as Antiproliferative and Antioxidant Agents” (International Journal of Molecular Sciences, 2024).

Key:
SK-MEL-2 = assay: NCI screening, Melanoma; type: cell-based; conditions: SK-MEL-2, Melanoma; 10 µM
Protocol: (§1) In addition, 11a and 17 (representative compounds of the acylhydrazone and amide series) were selected by the National Cancer Institute (NCI, Germantown, MD, USA) and tested at a fixed concentration of 10 µM against a panel of fifty-nine different cancer cell lines, including highly metastatic tumors (Table 2).

UACC-62 = assay: NCI screening, Melanoma; type: cell-based; conditions: UACC-62, Melanoma; 10 µM
Protocol: as §1

MALME-3M = assay: NCI screening, Melanoma; type: cell-based; conditions: 10 µM
Protocol: as §1

SK-MEL-5 = assay: NCI screening, Melanoma; type: cell-based; conditions: SK-MEL-5, Melanoma; 10 µM
Protocol: as §1

UACC-257 = assay: NCI screening, Melanoma; type: cell-based; conditions: UACC-257, Melanoma; 10 µM
Protocol: as §1

SK-MEL-28 = assay: NCI screening, Melanoma; type: cell-based; conditions: SK-MEL-28, Melanoma; 10 µM
Protocol: as §1

HCC-2998 = assay: NCI screening, Colon Cancer; type: cell-based; conditions: HCC-2998, Colon Cancer; 10 µM
Protocol: as §1

COLO 205 = assay: NCI screening, Colon Cancer; type: cell-based; conditions: COLO 205, Colon Cancer; 10 µM
Protocol: as §1

KM12 = assay: NCI screening, Colon Cancer; type: cell-based; conditions: 10 µM
Protocol: as §1

washed platelets = assay: ROS assay in platelets (DCFH-DA, thrombin-stimulated); type: cell-based, human; conditions: Homo sapiens, Platelet, 0.1 U/mL thrombin, mean ± SD, read-out: IC50 ROS production inhibition
Method in brief: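 Washed human platelets (1.0 × 10^8/mL) in pH 7.4 HEPES buffer were pre-incubated 15 min at 37 °C with compound, then stimulated with 0.1 U/mL thrombin. ROS was read as DCF fluorescence from DCFH-DA by flow cytometry. IC50 comes from three-point concentration-response nonlinear regression versus saline control, mean of six experiments.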

CAKI-1 = assay: NCI screening, Renal Cancer; type: cell-based; conditions: CAKI-1, Renal Cancer; 10 µM
Protocol: as §1

786-0 = assay: NCI screening, Renal Cancer; type: cell-based; conditions: 786-0, Renal Cancer; 10 µM
Protocol: as §1

A498 = assay: NCI screening, Renal Cancer; type: cell-based; conditions: 10 µM
Protocol: as §1

RXF 393 = assay: NCI screening, Renal Cancer; type: cell-based; conditions: RXF 393, Renal Cancer; 10 µM
Protocol: as §1

TK-10 = assay: NCI screening, Renal Cancer; type: cell-based; conditions: TK-10, Renal Cancer; 10 µM
Protocol: as §1

UO-31 = assay: NCI screening, Renal Cancer; type: cell-based; conditions: UO-31, Renal Cancer; 10 µM
Protocol: as §1

SN12C = assay: NCI screening, Renal Cancer; type: cell-based; conditions: 10 µM
Protocol: as §1

ACHN = assay: NCI screening, Renal Cancer; type: cell-based; conditions: 10 µM
Protocol: as §1

Row | Structure (SMILES) | Growth Percentage (%) (SK-MEL-2) | Growth Percentage (%) (UACC-62) | Growth Percentage (%) (MALME-3M) | Growth Percentage (%) (SK-MEL-5) | Growth Percentage (%) (UACC-257) | Growth Percentage (%) (SK-MEL-28) | Growth Percentage (%) (HCC-2998) | Growth Percentage (%) (COLO 205) | Growth Percentage (%) (KM12) | IC50 (washed platelets) [µM] | Growth Percentage (%) (CAKI-1) | Growth Percentage (%) (786-0) | Growth Percentage (%) (A498) | Growth Percentage (%) (RXF 393) | Growth Percentage (%) (TK-10) | Growth Percentage (%) (UO-31) | Growth Percentage (%) (SN12C) | Growth Percentage (%) (ACHN) | melting point [°C]
1 | CCOC(=O)c1c(NC(=O)C2CC2)nn(C)c1Nc1ccccc1 [compound 17, Ethyl 3-(cyclopropanecarboxamido)-1-methyl-5-(phenylamino)-1H-pyrazole-4-carboxylate] | 100.69 | 93.55 | 98.67 | 99.45 | 99.58 | 107.16 | 114.15 | 106.91 | 105.43 | 573 | 86.39 | 101.26 | 92.87 | 101.07 | 107.78 | 87.45 | 104.27 | 104.77 | 144 to 145
2 | COc1ccc(/C=N/NC(=O)c2c(N)nn(C)c2Nc2ccccc2)cc1 [11a, (E)-3-amino-N′-(4-methoxybenzylidene)-1-methyl-5-(phenylamino)-1H-pyrazole-4-carbohydrazide] | 70.70 | 23.72 | 44.75 | 57.21 | 56.35 | 57.48 | 59.18 | 35.82 | 27.82 | 123 ± 12 | 39.84 | 57.97 | 33.08 | 37.26 | 89.16 | 51.18 | 57.59 | 49.99 | 208 to 210
